The source of these data is PMC4180818 (Metabolic brain disease, 2013).

The experiment has as its target human glutamine synthetase (Homo sapiens, UniProt P15104). Kind of experiment: coupled pyruvate kinase/lactate dehydrogenase NADH assay. The class given is biochemical.

Chain of human glutamine synthetase (P15104 2-373): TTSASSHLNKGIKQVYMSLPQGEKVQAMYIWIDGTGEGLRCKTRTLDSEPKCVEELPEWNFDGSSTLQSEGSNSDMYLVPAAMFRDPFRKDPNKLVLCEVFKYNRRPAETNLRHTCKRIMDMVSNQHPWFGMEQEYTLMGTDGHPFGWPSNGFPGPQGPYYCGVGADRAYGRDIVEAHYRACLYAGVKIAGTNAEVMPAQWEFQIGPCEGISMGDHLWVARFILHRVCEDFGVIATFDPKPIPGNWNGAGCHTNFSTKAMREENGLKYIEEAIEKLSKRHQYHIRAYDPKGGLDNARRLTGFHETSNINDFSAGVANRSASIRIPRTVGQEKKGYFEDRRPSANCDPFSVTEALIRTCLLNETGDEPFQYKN

On to `CS(=N)(=O)CCC(N)C(=O)O` (mixture of isomers) [MSO, L-methionine-S,R-sulfoximine], for which the Ki turned out to be 1190 µM.
